{
  "source": "patent EP1672365A1",
  "about": "“Means and methods for determining and/or influencing cellular transportation” (priority 2004, dated 2006)",
  "key": {"Bcrp1 [1]": {"biological_target": "T1, Bcrp1 (Mus musculus, UniProt Q7TMS5)", "T1 sequence (Q7TMS5 1-657)": "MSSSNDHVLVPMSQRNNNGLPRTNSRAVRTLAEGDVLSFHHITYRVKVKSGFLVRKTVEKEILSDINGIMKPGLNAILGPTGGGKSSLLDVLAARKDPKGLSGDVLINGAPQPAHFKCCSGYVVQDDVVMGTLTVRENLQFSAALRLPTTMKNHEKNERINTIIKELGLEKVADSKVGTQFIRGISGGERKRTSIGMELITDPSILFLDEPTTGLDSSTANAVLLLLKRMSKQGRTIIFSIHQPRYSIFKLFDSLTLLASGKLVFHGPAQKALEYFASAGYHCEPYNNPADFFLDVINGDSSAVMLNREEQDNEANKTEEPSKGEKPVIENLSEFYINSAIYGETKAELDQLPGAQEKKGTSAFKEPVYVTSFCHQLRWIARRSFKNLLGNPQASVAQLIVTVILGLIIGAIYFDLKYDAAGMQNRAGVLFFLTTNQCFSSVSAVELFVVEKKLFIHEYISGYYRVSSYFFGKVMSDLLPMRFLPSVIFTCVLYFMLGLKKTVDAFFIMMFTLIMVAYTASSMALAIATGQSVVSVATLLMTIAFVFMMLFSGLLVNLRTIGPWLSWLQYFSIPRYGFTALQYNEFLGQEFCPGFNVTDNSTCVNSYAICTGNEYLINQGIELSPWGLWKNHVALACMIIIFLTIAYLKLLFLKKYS", "assay": "Milk secretion of radiolabelled compounds after intravenous administration to lactating wild-type and Bcrp1-/- mice", "type": "in vivo", "set-up": "Bcrp1 was detected primarily in the apical membrane of alveolar epithelial cells; from tissue; host or cells: mammary gland of lactating wild-type mice (Bcrp1-/- mice as control)", "conditions": "for milk secretion in Bcrp1-/- compared to wild-type mice: lactating wild-type vs Bcrp1-/- mice; for milk-to-plasma (M/P) ratio: lactating Bcrp1-/- mice; for milk-to-plasma (M/P) ratio / milk secretion in wild-type mice: 1 mg kg-1 intravenously, 30 min; for milk secretion in wild-type mice: lactating wild-type mice", "experimental": "(§1) For intravenous drug administration, 5 µl drug solution per g body weight was injected into the tail vein of mice lightly anesthetised with methoxyflurane. Levels of radioactivity in plasma and milk were determined by liquid scintillation counting. Measurements of drug secretion into the milk were done in lactating dams with pups of approximately 10 days old. To stimulate milk secretion, oxytocin (200 µl of an 1 I.U. ml^-1 solution) was administered subcutaneously to lactating dams at 30 min before milk was collected. After intravenous administration of a drug, at the indicated time approximately 50 µl milk was collected from the 4th and 5th mammary glands by gentle vacuum suction. Immediately after milk collection, a small blood sample was collected from the tail."}, "Bcrp1 [2]": {"test_system": "Bcrp1", "assay": "Inhibition of Bcrp1-mediated milk secretion of topotecan by GF120918", "type": "in vivo", "conditions": "GF120918 250 mg/kg orally 2 hours before [14C]-topotecan 1 mg/kg i.v., lactating mice", "protocol": "GF120918 was suspended at […] in water for injection and concentrated stock vehicle (1:1). The concentrated stock vehicle consisted of hydroxypropyl methyl cellulose (10 g/l) and 2% Tween 80 in water for injection. Animals were administered GF120918 (250 mg/kg; 10 µl of drug solution/g body weight) by gavage into the stomach at 2 hours before [^14C]-topotecan injection. [^14C]-topotecan (1 mg/kg) was injected into the vein of mice lightly anesthetized with methoxyflurane. To stimulate milk secretion, oxytocin (200 µl of 1 I.U./ml solution) was administered subcutaneously to lactating dams at 15 min before each milk sample was collected. At indicated time points (15, 30, 60 and 120 min after [^14C]-topotecan injection), 50 µl of milk was collected from the mammary glands by gentle vacuum suction. […] At the last sampling point, animals were sacrificed by cardiac puncture after anesthesia with methoxyflurane."}, "human BCRP": {"biological_target": "T2, human BCRP (Homo sapiens, UniProt Q9UNQ0)", "T2 construct": "made in house; host or cells: Sf9 insect cells infected with BCRP-expressing baculovirus (membrane vesicles)", "T2 sequence (Q9UNQ0 1-655)": "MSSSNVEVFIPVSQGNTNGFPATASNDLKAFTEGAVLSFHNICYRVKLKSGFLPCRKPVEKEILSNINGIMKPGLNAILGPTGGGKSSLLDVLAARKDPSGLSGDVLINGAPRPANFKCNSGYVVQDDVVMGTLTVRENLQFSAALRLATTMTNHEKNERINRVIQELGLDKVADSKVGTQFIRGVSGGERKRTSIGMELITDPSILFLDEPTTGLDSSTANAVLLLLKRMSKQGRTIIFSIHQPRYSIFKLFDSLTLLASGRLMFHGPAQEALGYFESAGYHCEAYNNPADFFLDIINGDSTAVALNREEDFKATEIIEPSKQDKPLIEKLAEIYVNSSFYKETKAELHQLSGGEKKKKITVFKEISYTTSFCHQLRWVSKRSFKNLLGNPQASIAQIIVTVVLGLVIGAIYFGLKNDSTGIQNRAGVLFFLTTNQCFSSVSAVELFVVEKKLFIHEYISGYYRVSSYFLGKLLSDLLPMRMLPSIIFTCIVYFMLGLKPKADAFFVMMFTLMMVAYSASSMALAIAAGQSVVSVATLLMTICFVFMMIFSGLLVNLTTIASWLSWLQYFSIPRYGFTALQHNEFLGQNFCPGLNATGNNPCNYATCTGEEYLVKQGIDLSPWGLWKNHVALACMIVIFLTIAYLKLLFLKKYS", "assay": "Vesicular transport assay (inside-out vesicle uptake, Sf9 membrane vesicles)", "type": "biochemical", "conditions": "3H-riboflavin 0.25 µM, vesicles from Sf9 cells with BCRP-expressing or wild-type baculovirus, 4 mM ATP", "protocol": "Vesicular transport assays were performed as described (Ozvegy, C., et al. Functional characterization of the human multidrug transporter, ABCG2, expressed in insect cells. Biochem. Biophys. Res. Commun. 285, 111-117 (2001); Zelcer, N., et al. Evidence for two interacting ligand-binding sites in human MRP2 (ABCC2). J. Biol. Chem. 278, 23538-23544 (2003)), using vesicles from Sf9 cells infected with BCRP-expressing or wild-type baculovirus, in the presence or absence of 4 mM ATP. ATP-dependent transport was calculated by subtracting the uptake in absence of ATP from that in the presence of ATP."}, "Bcrp1 [3]": {"biological_target": "T1, Bcrp1", "conditions": "in vivo", "experimental": "as §1\nSamples were protected from light during the whole sample pre-treatment. Methanol (4 times the sample volume) was added to plasma and milk samples to precipitate proteins. […] The flow was 1.0 ml min^-1 and the detection was performed fluorimetrically using a FP920 Intelligent Fluorescence Detector (Jasco International Co. Ltd., Tokyo, Japan) with excitation/emission wavelengths set at 372/520 nm and 40 nm bandwidth. The capacity of the flow-cell of the fluorescence detector was 16 µl. […] Calibration curves were calculated by least-squares linear regression using a weighting factor of the reciprocal of the concentration."}},
  "note": "Entries after “also recorded” stand apart in the source; their conditions may differ.",
  "data": [
    {"compound": "C[C@]12CC[C@H](OS(=O)(=O)O)CC1=CC[C@@H]1[C@@H]2CC[C@]2(C)C(=O)CC[C@@H]12", "note": "[DHEAS, dehydroepiandrosterone-sulfate]", "values": [
      {"measurement": "milk secretion in Bcrp1-/- compared to wild-type mice", "setting": "Bcrp1 [1]", "value": "not affected"}
    ]},
    {"compound": "COc1cc2c(cc1OC)CN(CCc1ccc(NC(=O)c3cccc4c(=O)c5cccc(OC)c5[nH]c34)cc1)CC2", "note": "[GF120918, N-{4-[2-(1,2,3,4-tetrahydro-6,7-dimethoxy-2-isoquinolinyl)-ethyl]-phenyl}-9,10-dihydro-5-methoxy-9-oxo-4-acridine carboxamide]", "values": [
      {"measurement": "effect on active secretion of topotecan into the milk by Bcrp1", "setting": "Bcrp1 [2]", "value": "effectively reversed; also recorded: capable of at least in part inhibiting transport of topotecan into the milk"}
    ]},
    {"compound": "Cn1c(N)nc2ncc(-c3ccccc3)cc21", "note": "[PhIP, 2-amino-1-methyl-6-phenylimidazo[4,5-b]pyridine]", "values": [
      {"measurement": "milk-to-plasma (M/P) ratio", "setting": "Bcrp1 [1]", "value": "<= 1"},
      {"measurement": "milk secretion in wild-type mice", "setting": "Bcrp1 [1]", "value": "highly concentrated into the milk"}
    ]},
    {"compound": "Nc1nc2ncc(CNc3ccc(C(=O)N[C@@H](CCC(=O)O)C(=O)O)cc3)nc2c(=O)[nH]1", "note": "[folic acid]", "values": [
      {"measurement": "milk secretion in Bcrp1-/- compared to wild-type mice", "setting": "Bcrp1 [1]", "value": "not affected"}
    ]},
    {"compound": "Cc1cc2nc3c(=O)[nH]c(=O)nc-3n(C[C@H](O)[C@H](O)[C@H](O)CO)c2cc1C", "note": "[riboflavin]", "values": [
      {"measurement": "ATP-dependent transport by human BCRP", "setting": "human BCRP", "value": "confirmed ATP-dependent transport"},
      {"measurement": "decrease in the endogenous milk secretion", "setting": "Bcrp1 [3]", "value": 67, "unit": "fold"}
    ]},
    {"compound": "CC[C@@]1(O)C(=O)OCc2c1cc1n(c2=O)Cc2cc3c(CN(C)C)c(O)ccc3nc2-1", "note": "[topotecan]", "values": [
      {"measurement": "milk-to-plasma (M/P) ratio", "setting": "Bcrp1 [1]", "value": "<= 1"},
      {"measurement": "milk secretion in wild-type mice", "setting": "Bcrp1 [1]", "value": "highly concentrated into the milk"}
    ]},
    {"compound": "vitamin B12", "values": [
      {"measurement": "milk secretion in Bcrp1-/- compared to wild-type mice", "setting": "Bcrp1 [1]", "value": "not affected"}
    ]}
  ]
}
